Reference: patent publication US7776826B2, “Method for fostering bone formation and preservation” (Unigene Laboratories, Inc., priority 2004, dated 2010)

Assays:
Assay type in all cases: in vivo, rat
Male Sprague-Dawley rats [1] = experiment: MicroCT analysis of left femoral shafts, Groups A-J; conditions: left femoral shaft with bmx
Source text: FIG. 6 illustrates the results of Micro Computerized Tomography (MicroCT) analyses of the left (ablated) femoral shafts of the rats which are the subjects of FIGS. 3-4. The abbreviations mean the same as in FIGS. 3-5;
FIG. 6 illustrates the results of a Micro Computerized Tomography (MicroCT) analysis of representative bones taken from the left femoral shaft of control and treated rats. The modality of treatment is set forth in the lower left corner of each of the views, and the abbreviations used therein are the same as those which appear in FIGS. 3-5. The Figure provides a view through a section of each such bone shaft.
The bones were thereafter subjected to a variety of sample analysis techniques. These included X-ray analysis wherein the femurs were X-rayed in individually sealed plastic bags; PIXIMUS analysis using a Lunar PIXIMUS scanner to measure bone mineral density in the bone marrow cavity of the femurs; MicroCT analysis; and blood analysis for osteocalcin, PTH, CT, NTX and growth factors.

Male Sprague-Dawley rats [2] = experiment: MicroCT analysis of femoral shafts, Groups K-R; conditions: left femoral shaft with bmx, agent for 21 days
Source text: FIG. 13(a-b) illustrate the results of Micro Computerized Tomography (MicroCT) analysis of the left (ablated) and right (non-ablated) femoral shafts of the rats of Groups K-R. The abbreviations are the same as those used in FIGS. 10-12;
FIG. 13 (a-b) provides a comparison between Micro Computerized Tomography (MicroCT) analyses of bone samples taken from the left femoral shaft (FIG. 13a) and the right femoral shaft (FIG. 13b) of rats treated in the manner indicated in FIGS. 10-12. As in the other cases discussed above, the most significant amount of new bone growth is found in the shaft of the left femur, since this shaft was subjected to the bmx treatment. […] In contrast, the right femoral shaft sections show very little or no increase in bone growth at all.

Male Sprague-Dawley rats [3] = experiment: Von Kossa stained sections of left femurs subjected to bmx; conditions: left femur with bmx, PTH daily for 21 days
Source text: FIG. 8 illustrates sections (at 4× magnification) of undecalcified left femurs, subjected to bone marrow ablation (bmx), wherein the bone sections were stained with Von Kossa stain;
FIG. 8 provides views of stained and […] bone sections of the left femur of representative rats subjected to the following treatment modalities: Control day 0; Control day 21; Sham day 21; bmx day 0; bmx+PBS daily for 7 days; bmx+PBS daily for 14 days; bmx+PBS daily for 21 days; bmx+ parathyroid hormone (PTH[1-34]NH2) daily for 7 days; bmx+PTH daily for 14 days, and bmx+PTH daily for 21 days. […] These views provide substantial additional evidence of the efficacy of the method of the present invention.

Male Sprague-Dawley rats [4] = experiment: High resolution radiograms of left and right femurs, Groups A-J; conditions: left femur with bmx, 21 days
Procedure: FIG. 3 (a-e) present high resolution radiograms of, respectively, the left (ablated) and right (non-ablated) femurs of some of the rats described with regard to FIGS. 1 and 2 above. (See discussion below of Tables 1 and 2) The radiographs were taken three weeks (i.e., 21 days) following commencement of treatment. The rats were treated as follows: (a) control (i.e., no surgery); (b) sham (i.e., surgery without marrow ablation); (c) mechanical bone marrow ablation (bmx)+phosphate buffer saline (PBS) administration daily for 21 days; (d) bmx followed by parathyroid hormone (PTH[1-34]-NH2) administered daily for 21 days; and (e) bmx followed by parathyroid hormone (PTH[1-34]-NH2) administered daily for 7 days and then salmon calcitonin given daily from days 7-21. A marking of bmx with regard to a right (non-ablated) femur means that
FIG. 3 presents a set of high resolution radiograms of the entire left and right femurs from rats taken from some of the groups A-J described above. In each of the views shown, the treatment modality is indicated in the lower left corner of the radiogram. The following abbreviations are used: Control=no surgery; Sham=surgery without any bone marrow ablation; BMX=bone marrow ablation; PBS=phosphate buffer saline; PTH=parathyroid hormone (PTH[1-34]-NH2); and CT= salmon calcitonin. […]

Q: Which results are given for PTH[1-34]-NH2?
A: new bone growth in MicroCT, in words (Male Sprague-Dawley rats [1]): most extensive new bone growth; new bone growth in MicroCT, in words (Male Sprague-Dawley rats [2]): significant degree of improvement; bone growth within marrow cavity on stained sections, in words (Male Sprague-Dawley rats [3]): greatest such increase; bone growth on radiograms, in words (Male Sprague-Dawley rats [4]): greatest bone growth
